# Test results reported in US20110123483A1, “HMGB1 FOR CANCER TREATMENT” (DEUTSCHES KREBSFORSCHUNGSZENTRUM, priority 2009, published 2011).
# Test system: U251MG glioma cells
# Assay: Subcellular fractionation after iodine-125 labelled rhHMGB1; immunofluorescence colocalization
# Type: cell-based, human
# Conditions: 40 nM for 24 h (FIG. 8B)
# Protocol: U251 cells were seeded on 10 cm culture dishes. […], 4 h, 16 h and 24 h, the cells were detached carefully by incubation with cell dissociation buffer (30 min) in order to protect possible surface proteinreceptor-complexes, harvested, and subjected to subcellular fractionation using the ApoAlert Fractionation Kit as described below (the plasma membrane fraction was extracted from the cytoplasmatic fraction by a last centrifugation step of 400.000×g for 15 min at 4° C.). Successful fractionation was confirmed by western blot. Successful coupling of the HMGB1-tyrosine residues with I-125 was shown by the high radioactivity in the protein fraction of sephadex G25 gel filtration (early eluates). Fraction 4 was used for the incubation of cells with I-125-HMGB1. For radioactivity measurements cells were solubilized in 0.5M NaOH and mixed with 10 ml LSC cocktail (Ultima Gold, Perkin Elmer, Waltham Mass.). The radioactivity of each subcellular fraction was measured in a liquid scintillation counter (Packard TriCarb 2900, Meriden, Ill.) by using the Compton effect.
# Enrichment of mitochondrial fractions was performed using the ApoAlert Cell Fractionation Kit (Clontech, Mountain View, Calif.) as described previously (Gdynia et al., 2008). […]
substance,measurement,value
rhHMGB1: recombinant human High Mobility Group B1 protein (Sigma Aldrich),"mitochondrial localization, co-staining with mitochondrial marker (MitoTracker)",confirmed
